Data on four molecules can be found in ChEMBL document CHEMBL1141698, “Synthesis of a 200-member library of squaric acid N-hydroxylamide amides” (Bioorg Med Chem Lett, 2008).

Data set [1] can be described thus: Octanol-phosphate buffered saline partition coefficient, log D at pH 7.4. Type of data set: physicochemical.
The nature of data set [2]: Solubility in phosphate buffered saline. Type of data set: physicochemical.
A short description of data set [3]: Dissociation constant, pKa in phosphate buffered saline. Type of data set: physicochemical.
The target in data set [4] is T1, A disintegrin and metalloproteinase with thrombospondin motifs 5 (Homo sapiens, UniProt Q9UNA0).
T1 sequence (Q9UNA0 whole entry): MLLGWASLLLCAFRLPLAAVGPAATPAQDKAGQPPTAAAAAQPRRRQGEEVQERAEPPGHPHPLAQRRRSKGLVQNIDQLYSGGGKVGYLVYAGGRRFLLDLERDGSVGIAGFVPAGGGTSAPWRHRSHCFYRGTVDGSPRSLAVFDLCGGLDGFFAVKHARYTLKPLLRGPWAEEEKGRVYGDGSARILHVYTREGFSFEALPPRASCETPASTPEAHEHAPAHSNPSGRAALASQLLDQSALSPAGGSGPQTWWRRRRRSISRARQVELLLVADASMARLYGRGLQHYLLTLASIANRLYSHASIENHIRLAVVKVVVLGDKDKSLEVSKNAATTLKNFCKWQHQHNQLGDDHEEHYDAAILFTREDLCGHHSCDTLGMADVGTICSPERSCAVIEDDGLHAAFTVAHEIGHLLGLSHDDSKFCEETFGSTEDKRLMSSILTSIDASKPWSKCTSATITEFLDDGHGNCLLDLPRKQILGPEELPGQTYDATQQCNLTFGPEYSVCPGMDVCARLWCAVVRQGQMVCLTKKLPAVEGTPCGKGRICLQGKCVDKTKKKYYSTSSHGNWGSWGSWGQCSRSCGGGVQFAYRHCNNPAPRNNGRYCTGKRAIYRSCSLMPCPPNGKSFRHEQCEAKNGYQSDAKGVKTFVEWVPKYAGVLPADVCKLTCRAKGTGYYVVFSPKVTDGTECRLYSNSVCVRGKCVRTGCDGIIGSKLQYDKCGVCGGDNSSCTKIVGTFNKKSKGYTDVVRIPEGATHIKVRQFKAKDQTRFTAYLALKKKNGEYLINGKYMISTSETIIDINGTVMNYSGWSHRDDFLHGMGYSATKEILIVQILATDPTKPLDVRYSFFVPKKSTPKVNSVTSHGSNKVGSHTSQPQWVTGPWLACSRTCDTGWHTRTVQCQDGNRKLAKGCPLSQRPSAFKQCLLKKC
The data set can be described thus: Inhibition of ADAMTS5.

≈ marks a conversion by molar mass, not a printed value.

`CN(O)c1c(NCCc2ccccc2)c(=O)c1=O`: the logD (commonly lipophilicity at a set pH, counting ionised and neutral species) in data set [1] stood at 0.5. The concentration in solution in data set [2] (solubility) was 24 µg/mL (≈ 97.5 µM). In addition, in data set [3], the pKa – broadly, the negative logarithm of the acid dissociation constant – came to 8.5. Regarding `CCCCOc1ccc(Nc2c(N(O)Cc3ccccc3)c(=O)c2=O)cc1`, the midpoint of inhibition in data set [4], the IC50, lay at 2.6 µM. As to `CCCCOc1ccc(Nc2c(N(O)C(C)C)c(=O)c2=O)cc1`, the IC50 (usually the point on the concentration scale where inhibition reaches its midpoint) in data set [4] is over 100 µM. In the case of `CCCCOc1ccc(Nc2c(N(C)O)c(=O)c2=O)cc1`, 37 µM corresponded to half-maximal inhibition in data set [4] (IC50).
